# Laboratory results published in patent US20140171918A1, “USE OF A NOVEL SU[…]-FREE […] TO DELIVER TE[…] H[…]” (Bioject, Inc., priority 2012, published 2014).
# Key:
# [1] = system: hypogonadal men; experiment: Visual/verbal analog pain scale after needle-free injection
# Experimental: Each subject was given thorough instruction on performing self needle-free injections with the Zetaj et. […] Pharmacokinetic evaluation using testosterone levels were obtained at specified intervals. Secondary endpoints, both objective and subjective, included E2 levels, pain score diaries, and AMS scores obtained before and after one month of treatment. A dose confirmation strategy was conducted to achieve likelihood of valid dose.
# From day 60-90, all subjects were verified to have cottonseed vehicle in the commercially available formulation via Watson Pharmaceutical.
# [2] = Pharmacokinetic evaluation using testosterone levels after needle-free (Zetajet) subcutaneous self-injection; format: in vivo, human
# Source text: The goal of the study is to determine if a needle-free injector can consistently deliver frequent administrations (daily or three times weekly) of testosterone in a safe and effective manner. To answer this specific question, the study was designed to determine the efficacy (defined as testosterone serum levels, wetness, pain, and clinical questionnaire) of the combined product (cross labeled) of needle-free injection of testosterone cypionate hypogonadal men. This includes both objective (testosterone free and total levels) and subjective (pain and clinical questionnaire).
# On Jan. 26, 2013, IRBS approved a modification of the CP-445 study. Due to a clear efficacy and patient acceptance at day 30, an extension of the study was requested to follow the fourteen subject's testosterone levels at a less frequent dosing interval and increased dosage. There was no deviation to the protocol as originally designed for day 0-30. Nor was there any deviation to the conduct of the study to day 120. This modification allowed following subjects out to day 120 on a Monday, Wednesday, Friday dosing of 50 mg of testosterone cypionate. Only T levels at day 60 and 120 were assessed.
# [3] = system: hypogonadal men; experiment: Aging Male Score (AMS) questionnaire before and after treatment; format: in vivo, human
# Source text: AMS scoring was based on a rating of symptom severity ranging from no symptoms with the lowest score of 1 to severe symptoms with a […].
# [4] = system: hypogonadal men; experiment: Adverse events, injection site reactions and wetness after needle-free injection; format: in vivo, human
# Source text: Of the 14 patients 9 recorded symptoms of redness, 5 symptoms of bruising and one an induration. None of these reactions required medical follow up or dissuaded any patient from discontinuing treatment. See section on Preference for additional data on patient preference and comparison of needle-Free injection methods to needle and syringe. FIG. 5 depicts post injection site reactions as a percentage of the total number of injections for 14 patients over a 30 day period.
# Wetness at the injection site is believed to be attributed to moisture on the tip of the syringe prior to the injection per recommended technique. Wetness with visible moisture flow at the site of the injection is thought to result from improper injection technique and a lack of fluid pressure in the nozzle because of the technique. Results for wetness varied across all patients. FIG. 7 depicts cumulative wetness results by category as a percentage of total injections.
compound,measurement,setting,value
C[C@]12CC[C@H]3[C@@H](CCC4=CC(=O)CC[C@@]43C)[C@@H]1CC[C@@H]2OC(=O)CCC1CCCC1 [testosterone cypionate],"verbal analog pain score, average","[1]; five minutes after injection, scale 0-4, 25 mg daily needle-free injection",0.54
same,"visual analog pain score, average","[1]; five minutes after injection, scale 0-10, 25 mg daily needle-free injection in the abdomen",0.4
same,verbal analog pain score,"[1]; thirty minutes after injection, scale 0-4, 4 most painful",0.26
same,visual analog pain score,"[1]; thirty minutes after injection, scale 0-10, 10 most painful",0.14
same,course of free and total testosterone levels,"[2]; 25 mg daily Zetajet injection, 6 hours to day 30",consistently rose from 6 hours to day 30
same,average testosterone level of the men with supraphysiologic levels (above 975.0 ng/dl),"[2]; 25 mg daily Zetajet injection, day 30, four men",1203 ng/dl
same,increase of free testosterone levels,"[2]; 25 mg daily, from 8.76 ng/dl to 37.5 ng/dl",over four fold increase
same,average total testosterone levels of QODWO dosing lower than daily injections,[2]; QODWO 50 mg vs daily 25 mg,35%
same,increase in testosterone levels,[2]; QODWO dosing at 50 mg,3 fold
same,supraphysiologic levels of testosterone,[2]; QODWO dosing at 50 mg,no men had supraphysiologic levels
same,men with normal testosterone levels,"[2]; QODWO dosing at 50 mg, men who completed the 120 day study extension",11 out of 11
same,average free testosterone level,"[2]; after 25 mg daily injection, baseline average 8.76 ng/dl",37.5 ng/dL
same,men with normal testosterone levels (primary endpoint),"[2]; at two weeks, 25 mg daily",13/14
same,increase in average testosterone levels from baseline,[2]; daily dosing regimen of 25 mg a day,over four fold increase
same,average testosterone level after correction to the normal range,"[2]; three formerly supraphysiologic subjects continued on QODWO regimen (50 mg), extended study",519 ng/dL
same,average AMS score after treatment,"[3]; after one month of 25 mg daily, baseline average 50 points, thirteen of fourteen men",25 points
same,average reduction in bothersome hypogonadal symptoms (AMS score),[3]; after one month of treatment vs before,50%
same,allergic response or major bruising,[4]; 100 mg/ml and 200 mg/ml commercially available formulations,No allergic response or major bruising
same,share of injections resulting in minor redness and bruising,[4]; 14 patients over 30 days,a quarter
same,severe adverse events,[4]; entire study (to day 120),No severe adverse events
same,tolerability / safety in words,[4]; needle-free injection in hypogonadal men,well tolerated
same,patients who recorded an induration,"[4]; of the 14 patients, 30 days",one
same,patients who recorded symptoms of bruising,"[4]; of the 14 patients, 30 days",5
same,patients who recorded symptoms of redness,"[4]; of the 14 patients, 30 days",9
